This is an account of results in patent US7687538B2 (priority 2004, dated 2010).

One assay concerns the target κ-opioid receptor (KOR) (Homo sapiens, UniProt P41145). Briefly: biochemical. The assay is classed as binding.
Assay [1] deals with kappa opiate receptor (KOR) (Homo sapiens, UniProt P41145). As to conditions: Roth 2002; cited from earlier work.
The conditions of assay [2]: Siebert 1994; cited from earlier work.

κ-opioid receptor (KOR), sequence (P41145 whole entry): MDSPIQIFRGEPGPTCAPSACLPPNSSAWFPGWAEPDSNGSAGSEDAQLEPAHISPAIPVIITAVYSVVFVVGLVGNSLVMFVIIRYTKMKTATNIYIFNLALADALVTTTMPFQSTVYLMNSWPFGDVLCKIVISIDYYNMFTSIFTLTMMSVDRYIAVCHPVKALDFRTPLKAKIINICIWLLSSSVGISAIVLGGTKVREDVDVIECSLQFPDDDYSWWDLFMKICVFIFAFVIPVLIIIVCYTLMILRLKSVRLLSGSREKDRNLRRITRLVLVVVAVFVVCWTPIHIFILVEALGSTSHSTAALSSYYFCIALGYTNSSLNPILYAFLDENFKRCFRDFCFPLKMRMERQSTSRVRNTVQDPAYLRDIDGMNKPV
kappa opiate receptor (KOR), sequence (P41145 whole entry): as above

The compound `COC(=O)[C@@H]1C[C@H](S)C(=O)[C@H]2[C@@]1(C)CC[C@H]1C(=O)O[C@H](c3ccoc3)C[C@]21C` [2-Thiol salvinorin B] showed a Ki on κ-opioid receptor (KOR) of 11.2 nM.
Consider `COC(=O)[C@@H]1C[C@H](OC(C)=O)C(=O)[C@H]2[C@@]1(C)CC[C@H]1C(=O)O[C@H](c3ccoc3)C[C@]21C` [Salvinorin A], for which the “agonist character at the kappa opiate receptor” value in assay [1] is “full agonist”. For the same compound, in assay [2], the “human dose (psychedelic agent)” value is 0.5 to 1 mg.
In turn, `COC(=O)[C@@H]1C[C@H](SC(C)=O)C(=O)[C@H]2[C@@]1(C)CC[C@H]1C(=O)O[C@H](c3ccoc3)C[C@]21C` [Salvinorinyl-2-thioacetate] had a Ki on κ-opioid receptor (KOR) of 7.9 nM.

Broadly, the Ki is a dissociation constant, usually derived from enzyme kinetics or from competition with a known ligand. Low values mean a stronger hold on the target, high ones a looser hold on the target.
